For 22 compounds, IC50 results are on record in patent publication US11306084B2, “Integrin antagonists” (Saint Louis University, priority 2016, dated 2022).

Test [1] addresses T1, Recombinant human integrin ανβ8 (Homo sapiens, UniProt P06756+P26012).
T1 construct: purchased R&D Systems 4135-AV
Nature of the test: Solid Phase Receptor Assay (SPRA) for ανβ8 function. In kind it is binding. Particulars: plate-bound human LAP; read-out: αvβ8 SPRA IC50. How it is done:
F. Solid Phase Receptor Assay (SPRA) for ανβ8 Function
Wells were washed 3 times with 150 μL TBS+ and then 150 μL of blocking buffer (TBS+ with 1% bovine serum albumin, Sigma A7906) was added. The plate was incubated for 1 hr at 37° C. and then washed 3× with TBS+. […] Compounds were diluted to 20 μM and 1 μL was added to each well of the plate according to a standard template with each sample repeated in triplicate. After incubation for two hours at room temperature, the plate was washed 3× with 150 μL of TBS+. To each well, 50 μL of biotinylated anti-αν antibody (R&D Systems, BAF1219) at 1 μg/mL in TBS+/0.1% BSA were added and the plate was covered and incubated for 1 hr at room temperature. After washing the plate 3× with 150 μL. of TBS+ buffer, 50 μL of streptavidin-conjugated horseradish peroxidase (R&D Systems, DY998) diluted in TBS+ blocking buffer were added to the wells and the plate incubated for 20 min at room temperature. The plate was washed 3× with TBS+ followed by 50 μL of TMB substrate (Sigma T4444) added to each well in the dark and the plate incubated for 10 min at room temperature. 25 μL of 1.0 M phosphoric acid was added as a stop solution and the plates were read at 450 nm using a Spectramax plate reader.

Test [2] deals with T2, Recombinant human integrin ανβ5 (Homo sapiens, UniProt P06756+P18084).
T2 construct: purchased R&D Systems 2528-AV
T2 sequence (P06756 31-992 limits assumed): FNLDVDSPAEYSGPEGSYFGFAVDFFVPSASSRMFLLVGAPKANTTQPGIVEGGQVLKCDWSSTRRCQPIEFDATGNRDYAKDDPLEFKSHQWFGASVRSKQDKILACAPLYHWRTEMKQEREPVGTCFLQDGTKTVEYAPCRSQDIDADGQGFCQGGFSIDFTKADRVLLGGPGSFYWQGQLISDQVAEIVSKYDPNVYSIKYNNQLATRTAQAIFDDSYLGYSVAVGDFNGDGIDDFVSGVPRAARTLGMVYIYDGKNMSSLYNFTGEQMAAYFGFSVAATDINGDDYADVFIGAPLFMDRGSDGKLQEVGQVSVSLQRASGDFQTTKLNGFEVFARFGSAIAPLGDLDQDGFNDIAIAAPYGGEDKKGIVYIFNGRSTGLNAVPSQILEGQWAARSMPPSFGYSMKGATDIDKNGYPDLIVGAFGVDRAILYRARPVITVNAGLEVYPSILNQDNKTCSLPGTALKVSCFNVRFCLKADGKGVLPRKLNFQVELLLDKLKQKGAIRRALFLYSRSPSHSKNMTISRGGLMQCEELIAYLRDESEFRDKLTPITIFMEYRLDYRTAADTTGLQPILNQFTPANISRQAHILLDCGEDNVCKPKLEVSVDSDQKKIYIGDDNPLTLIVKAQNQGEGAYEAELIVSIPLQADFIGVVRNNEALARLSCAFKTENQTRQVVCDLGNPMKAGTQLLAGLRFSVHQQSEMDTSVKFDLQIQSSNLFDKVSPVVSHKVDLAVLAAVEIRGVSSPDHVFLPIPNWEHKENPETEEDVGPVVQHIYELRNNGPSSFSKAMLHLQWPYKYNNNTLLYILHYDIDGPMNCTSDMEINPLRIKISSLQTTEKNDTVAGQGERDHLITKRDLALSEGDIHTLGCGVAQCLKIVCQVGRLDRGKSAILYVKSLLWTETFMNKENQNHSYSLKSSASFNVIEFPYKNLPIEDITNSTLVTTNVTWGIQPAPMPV
T2 sequence (P18084 24-719 limits assumed): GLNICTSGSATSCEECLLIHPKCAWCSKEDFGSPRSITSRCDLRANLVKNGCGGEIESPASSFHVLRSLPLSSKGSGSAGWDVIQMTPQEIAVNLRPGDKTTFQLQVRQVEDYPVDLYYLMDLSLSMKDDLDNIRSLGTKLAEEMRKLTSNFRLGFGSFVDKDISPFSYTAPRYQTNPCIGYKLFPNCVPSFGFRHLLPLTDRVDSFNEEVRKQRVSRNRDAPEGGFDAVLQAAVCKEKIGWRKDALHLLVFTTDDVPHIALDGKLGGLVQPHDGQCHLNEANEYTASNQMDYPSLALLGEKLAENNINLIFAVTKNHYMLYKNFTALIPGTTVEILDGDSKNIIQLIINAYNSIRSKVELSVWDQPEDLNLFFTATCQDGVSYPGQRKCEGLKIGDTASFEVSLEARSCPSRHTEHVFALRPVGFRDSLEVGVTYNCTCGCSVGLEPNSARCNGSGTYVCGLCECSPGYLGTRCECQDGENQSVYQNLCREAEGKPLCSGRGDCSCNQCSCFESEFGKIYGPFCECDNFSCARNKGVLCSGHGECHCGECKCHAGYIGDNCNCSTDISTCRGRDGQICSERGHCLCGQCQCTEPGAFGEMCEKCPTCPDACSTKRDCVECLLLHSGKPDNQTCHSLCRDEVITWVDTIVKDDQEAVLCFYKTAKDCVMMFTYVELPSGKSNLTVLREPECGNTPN
Nature of the test: Solid Phase Receptor Assay (SPRA) for ανβ5 function. In kind it is binding. Particulars: plate-bound human vitronectin; read-out: αvβ5 SPRA IC50. The method, then: D. Solid Phase Receptor Assay (SPRA) for ανβ5 Function
Wells were washed 3 times with 150 μL TBS+ and then 150 μL of blocking buffer (TBS+ with 1% bovine serum albumin, Sigma A7906) was added. The plate was incubated for 1 hr at 37° C. and then washed 3× with TBS+ buffer. […] Compounds were diluted to 20 μM and then 1 μL was added to each well of the plate according to a standard template with each sample repeated in triplicate. After incubation for two hours at room temperature, the plate was washed 3× with 150 μL of TBS+ buffer. To each well, 50 μl of biotinylated anti-αν antibody (R&D Systems, BAF1219) at 0.5 μg/mL in TBS+/0.1% BSA at 0.5 μg/mL were added and the plate covered and incubated for 1 hr at room temperature. After washing the plate 3 with 150 μL of TBS+ buffer, 50 μL of streptavidin-conjugated horseradish peroxidase (R&D Systems, DY998) diluted in TBS+ blocking buffer were added to the wells and the plate incubated for 20 min at room temperature. The plate was washed 3× with TBS+ buffer followed by 50 μL of TMB substrate (Sigma T4444) added to each well in the dark and the plate incubated for 5 min at room temperature. 25 μL of 1.0 M phosphoric acid was added as a stop solution and the plates were read at 450 nm using a Spectramax plate reader.

Counter-ions that a name gives are not always drawn.

T1 sequence (P06756 31-992 limits assumed): as the sequence (P06756 31-992 limits assumed) above
T1 sequence (P26012 43-684 limits assumed): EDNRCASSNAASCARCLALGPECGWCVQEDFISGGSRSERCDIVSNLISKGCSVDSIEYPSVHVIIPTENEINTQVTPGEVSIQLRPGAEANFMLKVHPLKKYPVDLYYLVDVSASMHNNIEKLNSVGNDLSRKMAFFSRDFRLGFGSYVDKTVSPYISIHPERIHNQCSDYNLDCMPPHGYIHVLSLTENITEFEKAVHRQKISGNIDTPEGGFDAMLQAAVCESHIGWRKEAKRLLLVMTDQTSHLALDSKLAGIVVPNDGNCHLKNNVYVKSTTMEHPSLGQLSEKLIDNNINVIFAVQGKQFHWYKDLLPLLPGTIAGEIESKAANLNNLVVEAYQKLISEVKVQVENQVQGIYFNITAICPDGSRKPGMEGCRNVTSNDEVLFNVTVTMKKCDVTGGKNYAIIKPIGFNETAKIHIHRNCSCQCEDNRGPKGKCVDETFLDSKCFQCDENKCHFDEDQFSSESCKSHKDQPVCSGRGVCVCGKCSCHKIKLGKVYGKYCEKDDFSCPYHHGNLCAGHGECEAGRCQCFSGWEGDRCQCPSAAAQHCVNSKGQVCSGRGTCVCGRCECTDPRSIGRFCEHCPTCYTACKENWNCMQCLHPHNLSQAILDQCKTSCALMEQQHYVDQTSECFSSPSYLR

For `Cn1nc(CC(CC(=O)O)c2ccc3c(c2)OCCO3)cc1OCCc1ccc2c(n1)NCCC2` (centres unmarked) [Example 1, 3-(2,3-dihydrobenzo[b][1,4]dioxin-6-yl)-4-(1-methyl-5-(2-(5,6,7,8-tetrahydro-1,8-naphthyridin-2-yl)ethoxy)-1H-pyrazol-3-yl)butanoic Acid], the IC50 in test [1] was found to be 52 nM; in test [2] it was 0.9 nM.
For `Cn1nc(CC(CC(=O)O)c2cc(F)cc(Cl)c2)cc1OCCc1ccc2c(n1)NCCC2` (centres unmarked) [Example 2, 3-(3-chloro-5-fluorophenyl)-4-(1-methyl-5-(2-(5,6,7,8-tetrahydro-1,8-naphthyridin-2-yl)ethoxy)-1H-pyrazol-3-yl)butanoic Acid], in that order: 32 nM and 0.3 nM.
`COc1ccc(C(CC(=O)O)Cc2cc(OCCc3ccc4c(n3)NCCC4)n(C)n2)cc1F` (centres unmarked) [Example 3, 3-(3-fluoro-4-methoxyphenyl)-4-(1-methyl-5-(2-(5,6,7,8-tetrahydro-1,8-naphthyridin-2-yl)-ethoxy)-1H-pyrazol-3-yl)butanoic Acid]: the IC50 in test [1] worked out at 114 nM; in test [2], 0.4 nM.
The matching figures for `Cn1nc(CC(CC(=O)O)c2ccc(Br)c(F)c2)cc1OCCc1ccc2c(n1)NCCC2` (centres unmarked) [Example 4, 3-(4-bromo-3-fluorophenyl)-4-(1-methyl-5-(2-(5,6,7,8-tetrahydro-1,8-naphthyridin-2-yl)ethoxy)-1H-pyrazol-3-yl)butanoic Acid]: 79 nM and 0.5 nM.
The matching figures for `Cn1nc(CC(CC(=O)O)c2ccc(F)c(Br)c2)cc1OCCc1ccc2c(n1)NCCC2` (centres unmarked) [Example 5, 3-(3-bromo-4-fluorophenyl)-4-(1-methyl-5-(2-(5,6,7,8-tetrahydro-1,8-naphthyridin-2-yl)ethoxy)-1H-pyrazol-3-yl)butanoic Acid]: 16 nM and 0.4 nM.
Turning to `Cn1nc(CC(CC(=O)O)c2cccc(Br)c2)cc1OCCc1ccc2c(n1)NCCC2` (centres unmarked) [Example 6, 3-(3-bromophenyl)-4-(1-methyl-5-(2-(5,6,7,8-tetrahydro-1,8-naphthyridin-2-yl)ethoxy)-1H-pyrazol-3-yl)butanoic Acid], the concentration for half-maximal inhibition (IC50) worked out at 19 nM in test [1] and 0.4 nM in test [2].
On to `Cn1nc(CC(CC(=O)O)c2ccc(F)c(C#N)c2)cc1OCCc1ccc2c(n1)NCCC2` (centres unmarked) [Example 7, 3-(3-cyano-4-fluorophenyl)-4-(1-methyl-5-(2-(5,6,7,8-tetrahydro-1,8-naphthyridin-2-yl)ethoxy)-1H-pyrazol-3-yl)butanoic Acid], for which the 50% inhibitory concentration (IC50) in test [1] worked out at 23 nM; in test [2] it was 0.6 nM.
For the compound `Cn1nc(CC(CC(=O)O)c2ccc(C#N)c(F)c2)cc1OCCc1ccc2c(n1)NCCC2` (centres unmarked) [Example 8], the half-maximal inhibitory concentration (IC50) in test [1] is 48 nM; in test [2], 1 nM.
For `Cn1nc(CC(CC(=O)O)c2cccc(C#N)c2)cc1OCCc1ccc2c(n1)NCCC2` (centres unmarked) [Example 9, 3-(3-cyanophenyl)-4-(1-methyl-5-(2-(5,6,7,8-tetrahydro-1,8-naphthyridin-2-yl)ethoxy)-1H-pyrazol-3-yl)butanoic Acid], in that order: 62 nM and 0.2 nM.
The matching figures for `Cn1nc(CC(CC(=O)O)c2cc(Br)cc(C(F)(F)F)c2)cc1OCCc1ccc2c(n1)NCCC2` (centres unmarked) [Example 10, 3-(3-bromo-5-(trifluoromethyl)phenyl)-4-(1-methyl-5-(2-(5,6,7,8-tetrahydro-1,8-naphthyridin-2-yl)ethoxy)-1H-pyrazol-3-yl)butanoic Acid]: 12 nM and 1 nM.
Take `Cn1nc(CC(CC(=O)O)c2cc(Br)cc(OC(F)(F)F)c2)cc1OCCc1ccc2c(n1)NCCC2` (centres unmarked) [Example 11, 3-(3-bromo-5-(trifluoromethoxy)phenyl)-4-(1-methyl-5-(2-(5,6,7,8-tetrahydro-1,8-naphthyridin-2-yl)ethoxy)-1H-pyrazol-3-yl)butanoic Acid]: the figures for the IC50 in test [1] and in test [2] were 42 nM and 0.8 nM, respectively.
In the case of `COc1ccc(C(F)(F)F)cc1C(CC(=O)O)Cc1cc(OCCc2ccc3c(n2)NCCC3)n(C)n1` (centres unmarked) [Example 13, 3-(2-methoxy-5-(trifluoromethyl)phenyl)-4-(1-methyl-5-(2-(5,6,7,8-tetrahydro-1,8-naphthyridin-2-yl)ethoxy)-1H-pyrazol-3-yl)butanoic Acid Trifluoroacetate], the results for the 50% inhibitory concentration (IC50) in test [1] and in test [2] were 26 nM and 16 nM, respectively.
On to `COc1ccc(Br)cc1C(CC(=O)O)Cc1cc(OCCc2ccc3c(n2)NCCC3)n(C)n1` (centres unmarked) [Example 14, 3-(5-bromo-2-methoxyphenyl)-4-(1-methyl-5-(2-(5,6,7,8-tetrahydro-1,8-naphthyridin-2-yl)ethoxy)-1H-pyrazol-3-yl)butanoic acid trifluoroacetate], for which the IC50 in test [1] amounted to 12 nM; in test [2], 7.9 nM.
For the compound `COc1ccc([C@H](CC(=O)O)Cc2cc(OCCc3ccc4c(n3)NCCC4)n(C)n2)cc1F` [Example 15, (3S)-3-(3-fluoro-4-methoxyphenyl)-4-(1-methyl-5-(2-(5,6,7,8-tetrahydro-1,8-naphthyridin-2-yl)ethoxy)-1H-pyrazol-3-yl)butanoic Acid], the IC50 in test [1] is 90 nM; in test [2], 0.3 nM.
As to `Cn1nc(CC(CC(=O)O)c2cc(Br)cc(C(C)(C)C)c2)cc1OCCc1ccc2c(n1)NCCC2` (centres unmarked) [Example 16, 3-(3-bromo-5-tert-butyl-phenyl)-4-(1-methyl-5-(2-(5,6,7,8-tetrahydro-1,8-naphthyridin-2-yl)ethoxy)-1H-pyrazol-3-yl)butanoic Acid], the IC50 in test [1] was determined as 7.8 nM; in test [2] it was 3.1 nM.
For `Cn1nc(CC(CC(=O)O)c2cc(C#N)cc(C(C)(C)C)c2)cc1OCCc1ccc2c(n1)NCCC2` (centres unmarked) [Example 17], in that order: 6.9 nM and 0.4 nM.
In the case of `Cn1nc(CC(CC(=O)O)c2cc(C(C)(C)C)cc(C(C)(C)C)c2)cc1OCCc1ccc2c(n1)NCCC2` (centres unmarked) [Example 18, 3-(3,5-di-tert-butylphenyl)-4-[1-methyl-5-[2-(5,6,7,8-tetrahydro-1,8-naphthyridin-2-yl)ethoxyl]pyrazol-3-yl]butanoic Acid], the IC50 in test [1] is 85 nM; in test [2] it was 180 nM.
For `Cn1nc(CC(CC(=O)O)c2cc(Br)cc(C3(C(F)F)CC3)c2)cc1OCCc1ccc2c(n1)NCCC2` (centres unmarked) [Example 19, 3-(3-bromo-5-(1-(difluoromethyl)cyclopropyl)phenyl)-4-(1-methyl-5-(2-(5,6,7,8-tetrahydro-1,8-naphthyridin-2-yl)ethoxy)-1H-pyrazol-3-yl)butanoic Acid], the half-maximal inhibitory concentration (IC50) in test [1] worked out at 8.5 nM; in test [2], 1.2 nM.
For `Cn1nc(CC(CC(=O)O)c2cc(C#N)cc(C3(C(F)F)CC3)c2)cc1OCCc1ccc2c(n1)NCCC2` (centres unmarked) [Example 20, 3-(3-cyano-5-(1-(difluoromethyl)cyclopropyl)phenyl)-4-(1-methyl-5-(2-(5,6,7,8-tetrahydro-1,8-naphthyridin-2-yl)ethoxy)-1H-pyrazol-3-yl)butanoic Acid], in that order: 14 nM and 0.2 nM.
In the case of `Cn1nc(CC(CC(=O)O)c2cc(F)cc(C3(C(F)F)CC3)c2)cc1OCCc1ccc2c(n1)NCCC2` (centres unmarked) [Example 21, 3-(3-(1-(difluoromethyl)cyclopropyl)-5-fluorophenyl)-4-(1-methyl-5-(2-(5,6,7,8-tetrahydro-1,8-naphthyridin-2-yl)ethoxy)-1H-pyrazol-3-yl)butanoic Acid], the IC50 was determined as 53 nM in test [1] and 0.2 nM in test [2].
On to `Cn1nc(CC(CC(=O)O)c2cc(Cl)cc(C3(C(F)F)CC3)c2)cc1OCCc1ccc2c(n1)NCCC2` (centres unmarked) [Example 22, 3-(3-chloro-5-(1-(difluoromethyl)cyclopropyl)phenyl)-4-(1-methyl-5-(2-(5,6,7,8-tetrahydro-1,8-naphthyridin-2-yl)ethoxy)-1H-pyrazol-3-yl)butanoic Acid], for which the figures for the IC50 in test [1] and in test [2] were 17 nM and 0.6 nM, respectively.
On to `Cn1nc(CC(CC(=O)O)c2cc(C(F)(F)F)cc(C3(C(F)F)CC3)c2)cc1OCCc1ccc2c(n1)NCCC2` (centres unmarked) [Example 23, 3-(3-(1-(difluoromethyl)cyclopropyl)-5-(trifluoromethyl)phenyl)-4-(1-methyl-5-(2-(5,6,7,8-tetrahydro-1,8-naphthyridin-2-yl)ethoxy)-1H-pyrazol-3-yl)butanoic Acid], for which the IC50 came to 7.9 nM in test [1] and 6.5 nM in test [2].
